In publication PMC8151276, “An Integrated Approach toward NanoBRET Tracers for Analysis of GPCR Ligand Engagement” (Molecules, 2021):
Values belong to the molecule of their own block, whether it stands above or below them.

Key:
BDKRB2 = target: T1, BDKRB2 (Homo sapiens, UniProt P30411); assay: NanoBRET screen HiBiT-BDKRB2 in HEK293; format: binding
T1 construct: purchased Promega (in-house HiBiT-GPCR construct library, NanoBRET)
T1 sequence (P30411 1-391): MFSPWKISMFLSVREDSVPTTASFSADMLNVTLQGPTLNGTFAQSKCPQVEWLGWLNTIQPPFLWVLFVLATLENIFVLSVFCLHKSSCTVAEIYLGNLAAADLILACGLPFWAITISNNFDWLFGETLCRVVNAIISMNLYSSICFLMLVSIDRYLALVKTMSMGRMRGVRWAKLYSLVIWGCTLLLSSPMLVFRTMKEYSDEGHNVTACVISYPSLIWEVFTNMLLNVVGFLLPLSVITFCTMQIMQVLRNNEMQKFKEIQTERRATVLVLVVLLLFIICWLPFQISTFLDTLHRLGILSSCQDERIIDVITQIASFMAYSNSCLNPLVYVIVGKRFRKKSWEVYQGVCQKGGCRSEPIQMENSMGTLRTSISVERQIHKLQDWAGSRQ
Method: (§1) Each tracer candidate was screened across the entire library of HiBiT-GPCR constructs using NanoBRET as the detection modality. As depicted in Figure 4A, the specificity of interactions was evaluated through decrease in BRET due to competitive displacement of a bound tracer by excess parental compound. Each tracer was analyzed for binding to each HiBiT-GPCR fusion in the absence and in the presence of competing parental compound. Briefly, HEK293 cells were transfected with HiBiT-GPCR constructs diluted into promoterless DNA to reduce expression and maximize translocation to the cell surface. Each tracer candidate was then screened at concentrations of 1 μM and 0.1 μM across cells expressing these fusions. Cells were treated for 1.5 h with tracer either alone or in the presence of 20 μM competing parental compound (i.e., control). BRET was measured upon addition of purified LgBiT and subsequent complementation with HiBiT genetically fused to a GPCR. The specificity of interactions was assessed through a decrease in BRET signal due to competitive displacement of the bound tracer. To further gauge the robustness of these interactions, the fold response over the control (i.e., BRETtracer/BRETcontrol) was calculated. We chose a 1.5-fold response, which translates to ≥7-fold signal over noise as the minimal threshold required to score an interaction as positive. […]. Below we highlight the screening results obtained for our exemplary fluorescent tracers based on Clozapine, Amitriptyline and AZD1283.
(§2) HiBiT-GPCR DNA constructs were diluted in 10 mM Tris pH 8 to a final concentration of 0.01 μg/μL, arrayed in 96-well plates and stored at −20 °C. For transfection, HEK293 cells were suspended in Opti-MEM (without phenol red) supplemented with 2% fetal bovine serum (Seradigm) and 100 units/mL penicillin–streptomycin (Gibco) at a final concentration of 220,000 cells/mL and dispensed into white 96-well plates at 90 μL/well. Subsequent transfections and screens were carried using an Agilent Bravo Automated Liquid Handling Platform. First, the 96-well HiBiT DNA arrays were diluted 25-fold in Opti-MEM (without serum or phenol red) to a final concentration of 0.0004 μg/μL and 20 μL of the diluted DNAs were transferred into new 96-well plates. Next, promoterless carrier DNA (1 μg/μL) was diluted 25-fold (0.04 μg/μL) and then dispensed into the diluted arrays at 20 μL/well. Following brief mixing, Viafect transfection reagent (Promega) diluted 16-fold into Opti-MEM was dispensed into the plates at 40 μL/well. After mixing by pipetting, plates were incubated for 10 min on the pipetting station deck. The DNA-transfection reagent complexes were then added to plates containing cells. To facilitate the screen, 10 μL of DNA-transfection reagent complexes were added in duplicates to the top 4 and bottom 4 rows, resulting in two identical 48-well arrays per plate. Plates with transfected cells were incubated for 18–20 h at 37 °C/5% CO2. A screen of each tracer across the entire library using two different concentrations requires duplicate plates of transfected cells. Depending on the number of tracers being screened, transfections can be scaled up using the same ratios. The next day, for each tracer, four 20× screening solutions in tracer dilution buffer (Promega) were prepared: two duplicates at final concentration of 20 μM and two duplicates at a final concentration of 2 μM. A competing unmodified compound was added to one of each duplicate at a final concentration of 400 μM. The four resulting solutions were diluted 4-fold in Opti-MEM without serum or phenol red to generate 5× solutions (5 µM and 0.5 µM tracer +/− 100 μM competing compound). To screen the library, a BioTek MultiFlo FX liquid dispenser was used to dispense 22.5 µL of tracer solution to the top 4 rows and 22.5 µL tracer + competing compound solution to the 4 bottom rows. Plates were briefly mixed on an orbital shaker and incubated for 1.5 h at room temperature. […]

GALR2 = target: T2, GALR2 (Homo sapiens, UniProt O43603); assay: NanoBRET screen HiBiT-GALR2 in HEK293; format: binding
T2 construct: purchased Promega (in-house HiBiT-GPCR construct library, NanoBRET)
T2 sequence (O43603 1-387): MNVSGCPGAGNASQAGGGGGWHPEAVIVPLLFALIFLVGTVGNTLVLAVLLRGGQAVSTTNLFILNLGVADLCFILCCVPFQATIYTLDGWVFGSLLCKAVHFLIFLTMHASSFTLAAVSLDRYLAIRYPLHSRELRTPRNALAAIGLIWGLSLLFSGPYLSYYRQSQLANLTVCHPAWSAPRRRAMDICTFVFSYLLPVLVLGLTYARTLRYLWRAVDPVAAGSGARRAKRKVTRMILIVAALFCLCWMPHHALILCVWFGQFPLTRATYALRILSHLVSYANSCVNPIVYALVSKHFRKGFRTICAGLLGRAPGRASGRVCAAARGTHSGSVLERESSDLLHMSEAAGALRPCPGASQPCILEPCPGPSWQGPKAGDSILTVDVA
Method: as §1, §2

[1] = tracer at 0.1μM, listed as amitriptyline-b-2-NB590
[2] = tracer at 1μM, listed as amitriptyline-b-2-NB590

NanoBRET Fold Response (BDKRB2; BDKRB2, 0.1μM): 1.06
NanoBRET Fold Response (BDKRB2; BDKRB2, 1μM): 1.04
NanoBRET Fold Response (GALR2; GALR2, 0.1μM): 1.09
NanoBRET Fold Response (GALR2; GALR2, 1μM): 1.04
SMILES: CCOC(=O)c1cc(C#N)c(N2CCC(C(=O)NS(=O)(=O)Cc3ccccc3/C=C/C(=O)NCCNC(=O)CCc3ccc4n3[B-](F)(F)[N+]3=C(c5ccc[nH]5)C=CC3=C4)CC2)nc1C [AZD1283-1-NB590]

NanoBRET Fold Response (BDKRB2; BDKRB2, tracer 0.1μM): 1.00
NanoBRET Fold Response (BDKRB2; BDKRB2, tracer 1μM): 1.01
NanoBRET Fold Response (GALR2; GALR2, tracer 0.1μM): 0.94
NanoBRET Fold Response (GALR2; GALR2, tracer 1μM): 0.99
SMILES: N#CN=C(NCCCOc1cccc(CN2CCCCC2)c1)NCCNC(=O)CCOCCOCCOCCOCCNC(=O)CCc1ccc2n1[B-](F)(F)[N+]1=C(c3ccc[nH]3)C=CC1=C2 [Aminopotentidine-2-NB590]

SMILES: CN(C)CCC=C1c2ccccc2CCc2ccc(C(=O)NCCNC(=O)CCOCCOCCOCCOCCNC(=O)CCc3ccc4n3[B-](F)(F)[N+]3=C(c5ccc[nH]5)C=CC3=C4)cc21 [Amitriptyline-a-2-NB590]
NanoBRET Fold Response (BDKRB2; tracer at 0.1μM): 1.01
NanoBRET Fold Response (BDKRB2; tracer at 1μM): 1.04
NanoBRET Fold Response (GALR2; tracer at 0.1μM): 1.02
NanoBRET Fold Response (GALR2; tracer at 1μM): 0.99

SMILES: CN(C)CCC=C1c2ccccc2CCc2ccc(C(=O)NCCNC(=O)CCOCCOCCOCCOCCNC(=O)CCc3ccc4n3[B-](F)(F)[N+]3=C(c5ccc[nH]5)C=CC3=C4)cc21 [Amitriptyline-b-2-NB590]
NanoBRET Fold Response (BDKRB2; [1]): 1.05
NanoBRET Fold Response (BDKRB2; [2]): 1.12
NanoBRET Fold Response (GALR2; [1]): 1.10
NanoBRET Fold Response (GALR2; [2]): 1.11

NanoBRET Fold Response (BDKRB2; 0.1μM tracer): 1.00
NanoBRET Fold Response (BDKRB2; 1μM tracer): 1.05
NanoBRET Fold Response (GALR2; 0.1μM tracer): 0.91
NanoBRET Fold Response (GALR2; 1μM tracer): 1.23
SMILES: COc1ccc2c(n1)c(CCNC(C)=O)cn2CCNC(=O)CCc1ccc2n1[B-](F)(F)[N+]1=C(c3ccc[nH]3)C=CC1=C2 [Azamelatonin-1-NB590]

NanoBRET Fold Response (BDKRB2; 0.1μM tracer): 0.96
NanoBRET Fold Response (BDKRB2; 1μM tracer): 0.93
NanoBRET Fold Response (GALR2; 0.1μM tracer): 0.92
NanoBRET Fold Response (GALR2; 1μM tracer): 1.01
SMILES: COc1ccc2[nH]c(-c3ccc(CNC(=O)CCOCCOCCOCCOCCNC(=O)CCc4ccc5n4[B-](F)(F)[N+]4=C(c6ccc[nH]6)C=CC4=C5)cc3)c(CCNC(C)=O)c2n1 [AzomelatoninICO9-2-NB590]

NanoBRET Fold Response (BDKRB2; BDKRB2, 0.1μM tracer): 1.02
NanoBRET Fold Response (BDKRB2; BDKRB2, 1μM tracer): 1.13
NanoBRET Fold Response (GALR2; GALR2, 0.1μM tracer): 1.09
NanoBRET Fold Response (GALR2; GALR2, 1μM tracer): 1.19
SMILES: O=C(CCOCCOCCOCCOCCNC(=O)CCc1ccc2n1[B-](F)(F)[N+]1=C(c3ccc[nH]3)C=CC1=C2)NCCCN1CCN(C2=Nc3cc(Cl)ccc3Nc3ccccc32)CC1 [Clozapine-a-2-NB590]

SMILES: CN1CCN(C2=Nc3cc(Cl)ccc3Nc3ccc(CNC(=O)CCOCCOCCOCCOCCNC(=O)CCc4ccc5n4[B-](F)(F)[N+]4=C(c6ccc[nH]6)C=CC4=C5)cc32)CC1 [Clozapine-b-2-NB590]
NanoBRET Fold Response (BDKRB2; BDKRB2, 0.1μM tracer): 1.00
NanoBRET Fold Response (BDKRB2; BDKRB2, 1μM tracer): 1.00
NanoBRET Fold Response (GALR2; GALR2, 0.1μM tracer): 0.93
NanoBRET Fold Response (GALR2; GALR2, 1μM tracer): 0.99
